From PubChem BioAssay (NCI) come the findings set out here.

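Five compound concentrations were applied to cells in 96-well plates for 48 hours; endpoints were derived by simple linear interpolation of the resulting dose-response curve. TGI marks complete inhibition of growth.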

Some test systems named below: A549 NSCLC; ACHN renal; CAKI-1 renal; CCRF-CEM leukemia; HCC-2998 colon; HL-60(TB) leukemia; HS 578T breast; K-562 leukemia; LOX IMVI melanoma; MALME-3M melanoma; MDA-MB-231 breast; MDA-N; NCI-H460 lung; NCI-H522 lung; OVCAR-8 ovarian; PC-3 prostate; SK-MEL-2 melanoma; SNB-19 CNS; SW-620 colon; UACC-257 melanoma.
Assay in all cases: NCI anticancer screen, dose series, 48 h

Consider `O=C1CSC(c2ccccc2O)N1c1nc2cc3sc(N4C(=O)CSC4c4ccccc4O)nc3cc2s1` (stereo not given), for which the TGI in the assay with A549 NSCLC, in the assay with ACHN renal, in the assay with CAKI-1 renal, in the assay on CCRF-CEM leukemia, in the assay with HCC-2998 colon and with HL-60(TB) leukemia was above 100 µM in each case. Further, the TGI in the assay with HS 578T breast, with K-562 leukemia, with LOX IMVI melanoma, with MALME-3M melanoma, in the assay on MDA-MB-231 breast and with MDA-N was above 100 µM in each case. Besides, the TGI in the assay on NCI-H460 lung was above 33.6 µM; in the assay with NCI-H522 lung, above 100 µM; in the assay with OVCAR-8 ovarian it was above 100 µM; with PC-3 prostate, above 100 µM; in the assay with SK-MEL-2 melanoma, above 100 µM; in the assay with SNB-19 CNS, above 100 µM. Further, the values for the TGI with SW-620 colon and with UACC-257 melanoma were above 100 µM and above 77.5 µM, respectively.

Consider `NCCNCCCNC(=O)c1cc(-c2ccccc2)nc2ccccc12`, for which the TGI is above 100 µM in the assay with A549 NSCLC; above 100 µM with ACHN renal; above 100 µM with CAKI-1 renal; 51.2 µM in the assay with CCRF-CEM leukemia; 34.4 µM in the assay with HCC-2998 colon; above 100 µM in the assay on HL-60(TB) leukemia. Also, the TGI with HS 578T breast is above 100 µM; in the assay on K-562 leukemia, 54.9 µM; in the assay with LOX IMVI melanoma, above 100 µM; in the assay on MALME-3M melanoma, 30.8 µM; in the assay with MDA-MB-231 breast it was above 100 µM; in the assay on MDA-N, 66.8 µM. Also, the TGI in the assay on NCI-H460 lung was above 100 µM; in the assay on NCI-H522 lung it was 37.6 µM; in the assay with OVCAR-8 ovarian, above 100 µM; in the assay on PC-3 prostate, above 100 µM; with SK-MEL-2 melanoma, 42.7 µM; with SNB-19 CNS, above 100 µM. Also, the TGI is above 100 µM in the assay on SW-620 colon and 51.5 µM in the assay with UACC-257 melanoma.

As for `COCOc1c(C(OCOC)c2cnc(Sc3ccccc3)n2C)ccc(OC)c1OC` (stereo not given), the TGI in the assay with A549 NSCLC, in the assay on ACHN renal, in the assay with CAKI-1 renal, with CCRF-CEM leukemia, in the assay with HCC-2998 colon and in the assay on HL-60(TB) leukemia was above 100 µM throughout. Further, the TGI in the assay with HS 578T breast, with K-562 leukemia, in the assay on LOX IMVI melanoma, with MALME-3M melanoma, in the assay on MDA-MB-231 breast and in the assay on MDA-N was above 100 µM each time. Also, the TGI with NCI-H460 lung, with NCI-H522 lung, with OVCAR-8 ovarian, in the assay with PC-3 prostate, with SK-MEL-2 melanoma and in the assay on SNB-19 CNS was above 100 µM each time. Besides, the TGI in the assay on SW-620 colon and in the assay on UACC-257 melanoma was above 100 µM throughout.

`Cc1c(N=Nc2ccc(Cl)cc2)c(C)n(C2OC(CO)C(O)C(O)C2O)c(=S)c1C#N` (stereo not given): the TGI in the assay with A549 NSCLC was above 100 µM; in the assay with ACHN renal it was 55.5 µM; in the assay on CAKI-1 renal, above 100 µM; with CCRF-CEM leukemia, 53.5 µM; in the assay with HCC-2998 colon it was 58.7 µM; in the assay on HL-60(TB) leukemia, 58.3 µM. In addition, the TGI with HS 578T breast was 83 µM; in the assay with K-562 leukemia it was 55.4 µM; in the assay on LOX IMVI melanoma it was 33.3 µM; with MALME-3M melanoma, 46.3 µM; in the assay on MDA-MB-231 breast, 36.1 µM; with MDA-N it was 50.4 µM. Also, the TGI is 87.4 µM in the assay on NCI-H460 lung; 49.9 µM in the assay with NCI-H522 lung; 63.9 µM with OVCAR-8 ovarian; 68.7 µM in the assay with PC-3 prostate; 33.8 µM in the assay with SK-MEL-2 melanoma; above 100 µM with SNB-19 CNS. Further, the TGI with SW-620 colon is above 100 µM; with UACC-257 melanoma, 54.1 µM.

Turning to `CCc1ccc(/C=C/C(=O)C2CN(CC)CCC2(O)/C=C/c2ccc(CC)cc2)cc1` (stereo not given), the TGI in the assay on A549 NSCLC is 20 µM; with ACHN renal, 3.68 µM; with CAKI-1 renal, 18.7 µM; in the assay with CCRF-CEM leukemia, 5.16 µM; with HCC-2998 colon, 3.99 µM; in the assay with HL-60(TB) leukemia, above 24.6 µM. In addition, the TGI was found to be 8.67 µM with HS 578T breast; 8.94 µM with K-562 leukemia; 2.9 µM in the assay with LOX IMVI melanoma; 20 µM in the assay on MALME-3M melanoma; 5.07 µM with MDA-MB-231 breast; 10.6 µM in the assay with MDA-N. Further, the TGI with NCI-H460 lung is 7.26 µM; in the assay with NCI-H522 lung, 4.79 µM; in the assay with OVCAR-8 ovarian, 11.6 µM; in the assay with PC-3 prostate it was 12.4 µM; with SK-MEL-2 melanoma it was 18.7 µM; in the assay with SNB-19 CNS it was 23.3 µM. The TGI in the assay on SW-620 colon amounted to 4.4 µM; with UACC-257 melanoma, 19.3 µM.

For `COc1ccc(/C=C2\CCC(Cc3ccccc3)(CN(C)C)C2=O)cc1` (stereo not given), the TGI in the assay with A549 NSCLC was above 100 µM; with ACHN renal, above 100 µM; with CAKI-1 renal it was above 100 µM; in the assay on CCRF-CEM leukemia it was 72.3 µM; with HCC-2998 colon, above 100 µM; with HL-60(TB) leukemia, 55.3 µM. Also, the TGI in the assay on HS 578T breast was above 100 µM; with K-562 leukemia it was 78 µM; in the assay with LOX IMVI melanoma, 57.5 µM; with MALME-3M melanoma, above 100 µM; in the assay on MDA-MB-231 breast it was above 100 µM; in the assay on MDA-N, above 100 µM. Also, the TGI in the assay on NCI-H460 lung was above 100 µM; in the assay with NCI-H522 lung, above 71.9 µM; with OVCAR-8 ovarian it was above 100 µM; in the assay with PC-3 prostate, above 100 µM; in the assay on SK-MEL-2 melanoma, above 100 µM; with SNB-19 CNS, above 100 µM. In addition, the TGI in the assay with SW-620 colon was above 73.3 µM; with UACC-257 melanoma it was 66.2 µM.

For `O=c1c2cc(S(=O)(=O)Nc3ccc(Cl)cc3Cl)ccc2ncn1NS(=O)(=O)c1cccc2ccccc12`, the TGI is above 100 µM with A549 NSCLC; above 100 µM in the assay with ACHN renal; 85.7 µM in the assay on CAKI-1 renal; 47.7 µM in the assay on CCRF-CEM leukemia; above 100 µM in the assay on HCC-2998 colon; 37.5 µM with HL-60(TB) leukemia. In addition, the TGI was above 100 µM in the assay with HS 578T breast; above 100 µM with K-562 leukemia; 50 µM in the assay with LOX IMVI melanoma; above 100 µM with MALME-3M melanoma; above 100 µM in the assay on MDA-MB-231 breast; above 100 µM in the assay with MDA-N. Also, the TGI with NCI-H460 lung, in the assay on NCI-H522 lung, with OVCAR-8 ovarian, with PC-3 prostate, with SK-MEL-2 melanoma and in the assay with SNB-19 CNS was above 100 µM throughout. The TGI with SW-620 colon and with UACC-257 melanoma was above 100 µM throughout.
